Results published in patent US20250304623A1, “PEPTIDES FOR INTRACELLULAR DELIVERY” (UNIVERSIDADE DE SANTIAGO DE COMPOSTELA, priority 2022, published 2025).
Starred links: 1 amine or outer side, 2 acyl side, 3 side chain; linkers in the order of their positions; H or OH if unused. Residues, ends and D or L forms follow the SMILES beside them. Groups on a side chain read outwards from the residue. *: point of attachment. Glutaryl = O=C(CCCC(=O)[*:2])[*:1]; NHNH2 = NN*

How the values were obtained:
Format in all cases: cell-based
HepG2 cells [1] = experiment: RLuc pDNA delivery, robotic library screening, HepG2
Experimental: (§1) Cells were seeded in a 96 well plate the day before the experiment at a concentration of 60,000 cell/mL (100 μL/w) in DMEM+10% FBS+1% Gln-Abt. For robotic library screening, the delivery of pDNA encoding for the expression of Renilla luciferase gene (RLuc, pRL-CMV (Promega, #E2261)) in six different cell lines was performed. Amphihilic molecule stock solutions in DMSO were diluted with DMEM and freshly mixed with pDNA stock solutions in DMEM prior to transfection experiments, to afford several complexes at different amphiphile concentration (2-10 μM) while maintaining a constant final pDNA concentration of 2 ng/μL. The mixture was shaken for 30 min at room temperature before the addition to the cells. The cell medium was aspirated, and cells were washed twice with PBS. Finally, 50 μL of the complex's solution were added to the cells and incubated for 4 h. After the incubation, the medium was replaced by 100 μL of fresh DMEM supplemented with 10% FBS. 72 hours after transfection the DMEM was removed, cells were washed once with HBSS and 90 μL of HBSS were added to each well. Cells were incubated at 37° C. for 30 minutes. Then basal luminescence levels were read in a plate reader. Immediately, 10 μL of coelenterazine h in HBSS were added to each well (5 μM final concentration) and cells were incubated at 37° C. for 10 minutes. Finally, the total luminescence measurement of the plates was performed. Amphiphile transfection efficiency was compared and normalized to Lipofectamine® 2000 efficiency (value of 1 in Tables 1-5 and 7; bold numbers). All experiments were done in triplicate.
(§2) Tables 1-7: RLuc (pDNA) or EGFP (mRNA) expression levels were normalized to Lipofectamine reagents (value=1) and expressed as fold-times signal increase. In the case of siRNA, the siRNA treated cells fluorescence was compared with siMOCK control fluorescence, while Cas9-RNP mediated knockout was measured against the fluorescence of untreated cells. In both siRNA and Cas9-RNP, values are expressed as % fluorescence reduction. Amphiphile concentration was 5 μM in all cases. All experiments were performed in triplicate.
(§3) Tables 8-13 show the mean (triplicates) luminescent intensity (RLU) measured after the transfection of RLuc pDNA by different amphiphiles at different concentrations in a variety of cell lines. Background luminescence values, accounted by untransfected control cells, were subtracted for processing.

HepG2 cells [2] = experiment: EGFP mRNA delivery, robotic library screening, HepG2; details: for mean fluorescence intensity after transfection of EGFP mRNA: HepG2 cells
Experimental: Cells were seeded in a 96 well plate the day before the experiment at a concentration of 50,000 cell/mL (100 μL/w) in DMEM+10% FBS+1% Gln-Abt. For robotic library screening, the delivery of EGFP-mRNA (from TriLink, fully substituted with 5-methoxyuridine, capped and polyadenylated; TriLink, CleanCap® EGFP mRNA (5moU), ref. L-7201) in six different cell lines was performed. Amphiphilic molecule stock solutions were prepared in DMSO as described above and diluted in DMEM to afford a range of concentrations. The solutions of EGFP-mRNA/amphiphilic molecule complexes were freshly prepared prior to the transfection experiments. 35 μL of the corresponding amphiphile were added to 10 μL of a solution of EGFP-mRNA at 10 ng/μL in DMEM. The mixture was shaken for 30 min at room temperature before the addition to the cells. The cell medium was aspirated, and cells were washed with PBS twice. […] After the incubation, the medium was replaced by 100 μL of fresh DMEM supplemented with 10% FBS. The total EGFP fluorescence was quantified after 72 h in a well plate reader. Amphiphile transfection efficiency was compared and normalized to Lipofectamine® MessengerMax efficiency (value of 1 in Tables 1-5 and 7; double underlined numbers). All experiments were done in triplicate.
as §2
(§4) Tables 14-19 show the mean (triplicates) fluorescence intensity measured after the transfection of EGFP mRNA by different amphiphiles at different concentrations in a variety of cell lines. Background fluorescence values, accounted by untreated control cells, were subtracted for processing.

Hek293 cells [3] = experiment: RLuc pDNA delivery, robotic library screening, Hek293
A549 cells = experiment: RLuc pDNA delivery, robotic library screening, A549
Experimental: as §1, §2, §3

Hek293 cells [4] = experiment: EGFP mRNA delivery, robotic library screening, Hek293
Experimental: Cells were seeded in a 96 well plate the day before the experiment at a concentration of 50,000 cell/mL (100 μL/w) in DMEM+10% FBS+1% Gln-Abt. For robotic library screening, the delivery of EGFP-mRNA (from TriLink, fully substituted with 5-methoxyuridine, capped and polyadenylated; TriLink, CleanCap® EGFP mRNA (5moU), ref. L-7201) in six different cell lines was performed. Amphiphilic molecule stock solutions were prepared in DMSO as described above and diluted in DMEM to afford a range of concentrations. The solutions of EGFP-mRNA/amphiphilic molecule complexes were freshly prepared prior to the transfection experiments. 35 μL of the corresponding amphiphile were added to 10 μL of a solution of EGFP-mRNA at 10 ng/μL in DMEM. The mixture was shaken for 30 min at room temperature before the addition to the cells. The cell medium was aspirated, and cells were washed with PBS twice. Cells were covered with 39 μL of DMEM and 11 μL of the complex's solution were added to the cells and incubated for 4 h (final concentration of peptide=2.5, 5 and 10 μM; final concentration of EGFP-mRNA=25 ng/well). After the incubation, the medium was replaced by 100 μL of fresh DMEM supplemented with 10% FBS. The total EGFP fluorescence was quantified after 72 h in a well plate reader. Amphiphile transfection efficiency was compared and normalized to Lipofectamine® MessengerMax efficiency (value of 1 in Tables 1-5 and 7; double underlined numbers). All experiments were done in triplicate.
as §2, §4

CC(=O)N[C@@H](CCCNC(=N)N)C(=O)N[C@@H](CCCCNC(=O)CCCC(=O)NN)C(=O)N[C@@H](Cc1c[nH]cn1)C(=O)N[C@@H](CCCNC(=N)N)C(=O)N[C@@H](CCCCNC(=O)CCCC(=O)NN)C(=O)N[C@@H](CCCCNC(=O)CCCC(=O)NN)C(=O)N[C@@H](Cc1c[nH]cn1)C(N)=O [7.3(L-H), Ac-RK*HRK*K*H-NH2] (Ac-RK([Glutaryl-NHNH2])HRK([Glutaryl-NHNH2])K([Glutaryl-NHNH2])H-NH2)
mean luminescent intensity (RLuc pDNA) (HepG2 cells [1]; Myristoleyl, 5 μM): 355590 RLU
mean luminescent intensity (RLuc pDNA) (HepG2 cells [1]; Myristoleyl, 10 μM): 584678 RLU
mean luminescent intensity (RLuc pDNA) (HepG2 cells [1]; Myristoleyl, 15 μM): 406961 RLU
mean luminescent intensity (RLuc pDNA) (HepG2 cells [1]; Oleyl, 5 μM): 142065 RLU
mean luminescent intensity (RLuc pDNA) (HepG2 cells [1]; Oleyl, 10 μM): 68668 RLU
mean luminescent intensity (RLuc pDNA) (HepG2 cells [1]; Palmitoleyl, 5 μM): 642665 RLU
mean luminescent intensity (RLuc pDNA) (HepG2 cells [1]; Palmitoleyl, 10 μM): 519370 RLU
mean luminescent intensity (RLuc pDNA) (HepG2 cells [1]; Palmitoleyl, 15 μM): 265272 RLU
mean luminescent intensity (RLuc pDNA) (HepG2 cells [1]; Petroselinyl, 5 μM): 466959 RLU
mean luminescent intensity (RLuc pDNA) (HepG2 cells [1]; Petroselinyl, 10 μM): 437890 RLU
mean luminescent intensity (RLuc pDNA) (HepG2 cells [1]; Petroselinyl, 15 μM): 98868 RLU
mean fluorescence intensity after transfection of EGFP mRNA (HepG2 cells [2]; Dodecanal, 5 μM): 1140
mean fluorescence intensity after transfection of EGFP mRNA (HepG2 cells [2]; Dodecanal, 10 μM): 201
mean fluorescence intensity after transfection of EGFP mRNA (HepG2 cells [2]; Dodecanal, 15 μM): 533
mRNA delivery relative to Lipofectamine MessengerMAX (HepG2 cells [2]; HepG2, myristoleyl or petroselinyl aldehydes): able to outperform the activity of Lipofectamine® MessengerMAX
mean fluorescence intensity after transfection of EGFP mRNA (HepG2 cells [2]; Myristoleyl, 5 μM): 31364
mean fluorescence intensity after transfection of EGFP mRNA (HepG2 cells [2]; Myristoleyl, 10 μM): 12495
mean fluorescence intensity after transfection of EGFP mRNA (HepG2 cells [2]; Myristoleyl, 15 μM): 3194
mean fluorescence intensity after transfection of EGFP mRNA (HepG2 cells [2]; Oleyl, 5 μM): 4242
mean fluorescence intensity after transfection of EGFP mRNA (HepG2 cells [2]; Oleyl, 10 μM): 1217
mean fluorescence intensity after transfection of EGFP mRNA (HepG2 cells [2]; Oleyl, 15 μM): 1484
mean fluorescence intensity after transfection of EGFP mRNA (HepG2 cells [2]; Palmitoleyl, 5 μM): 8855
mean fluorescence intensity after transfection of EGFP mRNA (HepG2 cells [2]; Palmitoleyl, 10 μM): 3885
mean fluorescence intensity after transfection of EGFP mRNA (HepG2 cells [2]; Petroselinyl, 5 μM): 35842
mean fluorescence intensity after transfection of EGFP mRNA (HepG2 cells [2]; Petroselinyl, 10 μM): 18737
mean fluorescence intensity after transfection of EGFP mRNA (HepG2 cells [2]; Petroselinyl, 15 μM): 4860
mean luminescent intensity (RLuc pDNA) (Hek293 cells [3]; Myristoleyl, 5 μM): 330418 RLU
mean luminescent intensity (RLuc pDNA) (Hek293 cells [3]; Myristoleyl, 10 μM): 145597 RLU
mean luminescent intensity (RLuc pDNA) (Hek293 cells [3]; Myristoleyl, 15 μM): 36468 RLU
mean luminescent intensity (RLuc pDNA) (Hek293 cells [3]; Palmitoleyl, 5 μM): 294438 RLU
mean luminescent intensity (RLuc pDNA) (Hek293 cells [3]; Palmitoleyl, 10 μM): 191190 RLU
mean luminescent intensity (RLuc pDNA) (Hek293 cells [3]; Palmitoleyl, 15 μM): 87323 RLU
mean luminescent intensity (RLuc pDNA) (Hek293 cells [3]; Petroselinyl, 5 μM): 286371 RLU
mean luminescent intensity (RLuc pDNA) (Hek293 cells [3]; Petroselinyl, 10 μM): 237379 RLU
mean luminescent intensity (RLuc pDNA) (Hek293 cells [3]; Petroselinyl, 15 μM): 157061 RLU
mean luminescent intensity (RLuc pDNA) (A549 cells; Myristoleyl, 5 μM): 184442 RLU
mean luminescent intensity (RLuc pDNA) (A549 cells; Myristoleyl, 10 μM): 147873 RLU
mean luminescent intensity (RLuc pDNA) (A549 cells; Myristoleyl, 15 μM): 31551 RLU
mean luminescent intensity (RLuc pDNA) (A549 cells; Oleyl, 5 μM): 4031 RLU
mean luminescent intensity (RLuc pDNA) (A549 cells; Palmitoleyl, 5 μM): 109148 RLU
mean luminescent intensity (RLuc pDNA) (A549 cells; Palmitoleyl, 10 μM): 140079 RLU
mean luminescent intensity (RLuc pDNA) (A549 cells; Palmitoleyl, 15 μM): 105643 RLU
mean luminescent intensity (RLuc pDNA) (A549 cells; Petroselinyl, 5 μM): 94011 RLU
mean luminescent intensity (RLuc pDNA) (A549 cells; Petroselinyl, 10 μM): 139603 RLU
mean luminescent intensity (RLuc pDNA) (A549 cells; Petroselinyl, 15 μM): 6719 RLU
pDNA delivery, times better than Lipofectamine 2000 (A549 cells; palmitoleyl or petroselinyl aldehydes): 30 times
mean fluorescence intensity (EGFP mRNA) (Hek293 cells [4]; Dodecanal, 2.5 μM): 1201
mean fluorescence intensity (EGFP mRNA) (Hek293 cells [4]; Dodecanal, 5 μM): 588
mean fluorescence intensity (EGFP mRNA) (Hek293 cells [4]; Dodecanal, 10 μM): 3588
mean fluorescence intensity (EGFP mRNA) (Hek293 cells [4]; Myristoleyl, 2.5 μM): 21438
mean fluorescence intensity (EGFP mRNA) (Hek293 cells [4]; Myristoleyl, 5 μM): 11945
mean fluorescence intensity (EGFP mRNA) (Hek293 cells [4]; Myristoleyl, 10 μM): 1626
mean fluorescence intensity (EGFP mRNA) (Hek293 cells [4]; Oleyl, 2.5 μM): 9690
mean fluorescence intensity (EGFP mRNA) (Hek293 cells [4]; Oleyl, 5 μM): 17787
mean fluorescence intensity (EGFP mRNA) (Hek293 cells [4]; Oleyl, 10 μM): 1626
mean fluorescence intensity (EGFP mRNA) (Hek293 cells [4]; Palmitoleyl, 2.5 μM): 13282
mean fluorescence intensity (EGFP mRNA) (Hek293 cells [4]; Palmitoleyl, 5 μM): 12872
mean fluorescence intensity (EGFP mRNA) (Hek293 cells [4]; Palmitoleyl, 10 μM): 4716
mean fluorescence intensity (EGFP mRNA) (Hek293 cells [4]; Petroselinyl, 2.5 μM): 29561
mean fluorescence intensity (EGFP mRNA) (Hek293 cells [4]; Petroselinyl, 5 μM): 12351
mean fluorescence intensity (EGFP mRNA) (Hek293 cells [4]; Petroselinyl, 10 μM): 6511
